Data published in patent US20070191393A1, “Macrocyclic anilinopyrimidines with substituted sulphoximine as selective inhibitors of cell cycle kinases” (priority 2006, published 2007).

How the values were obtained:
Assay type in all cases: biochemical
Aurora-C = molecular target: T1, Aurora-C (Homo sapiens, UniProt Q9UQB9); assay: Aurora-C kinase assay; details: 3 μM ATP, 22° C., 90 min
T1 construct: made in house; host or cells: HEK293 (transiently transfected)
T1 sequence (Q9UQB9 1-309): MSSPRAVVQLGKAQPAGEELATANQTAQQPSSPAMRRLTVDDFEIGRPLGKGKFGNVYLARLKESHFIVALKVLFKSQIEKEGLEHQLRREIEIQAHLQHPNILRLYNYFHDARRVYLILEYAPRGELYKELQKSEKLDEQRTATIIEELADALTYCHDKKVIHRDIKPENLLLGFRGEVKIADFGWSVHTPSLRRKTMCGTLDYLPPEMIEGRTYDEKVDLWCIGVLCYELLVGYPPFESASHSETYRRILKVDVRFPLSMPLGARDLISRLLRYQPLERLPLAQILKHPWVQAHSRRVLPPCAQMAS
Procedure: Recombinant Aurora-C protein was expressed in transiently transfected HEK293 cells and then purified. The kinase substrate used was the biotinylated peptide having the amino acid sequence biotin-FMRLRRLSTKYRT, which was purchased from Jerini A G in Berlin.
Aurora-C [5 nM in the test mixture, test volume 5 μl] was incubated in the presence of various concentrations of test substances (0 μM and 10 measurement points within the range 0.001-20 μM in duplicate) in assay buffer [25 mM HEPES pH 7.4, 0.5 mM MnCl2, 0.1 mM Na ortho-vanadate, 2.0 mM dithiothreitol, 0.05% bovine serum albumin (BSA), 0.01% Triton X-100, 3 μM adenosine trisphosphate (ATP), 0.67 nCi/μl gama-P33-ATP, 2.0 μM substrate peptide biotin-FMRLRRLSTKYRT, 1.0% dimethyl sulphoxide] at 22° C. for 90 min. The reaction was stopped by adding 12.5 μl of an EDTA/detection solution [16 mM EDTA, 40 mM ATP, 0.08% Triton X-100, 4 mg/ml PVT streptavidin SPA beads (from Amersham)]. After incubation for 10 minutes, the SPA beads were pelleted by centrifugation at 1000×G for 10 minutes. Measurement took place in a PerkinElmer Topcount scintillation counter. The measured data were normalized to 0% inhibition (enzyme reaction without inhibitor) and 100% inhibition (enzyme reaction in the presence of 0.1 μM staurosporine (from Sigma)). The IC50 values were determined by means of a 4-parameter fit using the company's own software.

KDR = molecular target: T2, KDR (Homo sapiens, UniProt P35968); assay: KDR kinase assay; details: 1 μM ATP, 22° C., 20 min
T2 construct: made in house; host or cells: SF9 insect cells
Procedure: Recombinant GST-KDR protein was expressed in SF9 insect cells and then purified. The kinase substrate used was the biotinylated peptide biotin-polyGluAlaTyr from Cisbio International.
GST-KDR [test volume 15 μl] was incubated in the presence of various concentrations of test substances (0 μM, and 10 measurement points within the range 0.001-20 μM in duplicate) in assay buffer [50 mM HEPES pH 7.0, 25 mM MgCl2, 5 mM MgCl2, 0.5 mM Na ortho-vanadate, 1 mM dithiothreitol, 10% glycerol, 1 μM ATP, 23.5 mg/L substrate peptide biotin-polyGluAlaTyr, 1% dimethyl sulphoxide, 1× protease inhibitor mix (from Roche)] at 22° C. for 20 min. The reaction was stopped by adding 5 μl of an EDTA/detection solution [50 mM HEPES pH 7.0, 250 mM EDTA, 0.5% BSA, 22 mg/L streptavidin-XL (from CisBio), 1 mg/L PT66-Eu (from PerkinElmer)]. The fluorescence emission at 620 nm and 665 nm after excitation with light of the wavelength 350 nm was measured in a Rubystar HTRF instrument from BMG Labsystems 60 minutes after addition of the EDTA/detection solution.
The measured data (ratio of emission 665 divided by emission 620 multiplied by 10 000) were normalized to 0% inhibition (enzyme reaction without inhibitor) and 100% inhibition (all assay components apart from enzyme). The IC50 values were determined by means of a 4-parameter fit using the company's own software.

c-kit = molecular target: T3, c-kit (Homo sapiens, UniProt P10721); assay: c-Kit kinase assay; details: 10 μM ATP, 22° C., 30 min
T3 construct: made in house; host or cells: E. coli
Procedure: Recombinant c-kit protein was expressed in E. coli and then purified. The kinase substrate used was the biotinylated peptide having the amino acid sequence biotin-poly GluTyr, which was purchased from CisBio.
C-kit [test volume 5 μl] was incubated in the presence of various concentrations of test substances (0 μM, and 10 measurement points within the range 0.001-20 μM in duplicate) in assay buffer [50 mM HEPES pH 7.0, 1.0 mM MgCl2, […], 0.1 mM Na ortho-vanadate, 1.0 mM dithiothreitol, 0.001% NP40, 10 μM ATP, 0.03 μM substrate peptide biotin-poly GluTyr, 1.0% dimethyl sulphoxide] at 22° C. for 30 min. The reaction was stopped by adding 5 μl of an EDTA/detection solution [50 mM HEPES pH 7.5, 80 mM EDTA, 0.2% BSA, 0.1 μM streptavidin-XLent (from CisBio), 1 nM PT66-Eu (from PerkinElmer)]. The fluorescence emission at 620 nm and 665 nm after excitation with light of the wavelength 350 nm was measured in a Rubystar HTRF instrument from BMG Labsystems. The measured data (ratio of emission 665 divided by emission 620 multiplied by 10 000) were normalized to 0% inhibition (enzyme reaction without inhibitor) and 100% inhibition (all assay components apart from enzyme). The IC50 values were determined by means of a 4-parameter fit using the company's own software.

T2 sequence (P35968 20-1356, species assumed): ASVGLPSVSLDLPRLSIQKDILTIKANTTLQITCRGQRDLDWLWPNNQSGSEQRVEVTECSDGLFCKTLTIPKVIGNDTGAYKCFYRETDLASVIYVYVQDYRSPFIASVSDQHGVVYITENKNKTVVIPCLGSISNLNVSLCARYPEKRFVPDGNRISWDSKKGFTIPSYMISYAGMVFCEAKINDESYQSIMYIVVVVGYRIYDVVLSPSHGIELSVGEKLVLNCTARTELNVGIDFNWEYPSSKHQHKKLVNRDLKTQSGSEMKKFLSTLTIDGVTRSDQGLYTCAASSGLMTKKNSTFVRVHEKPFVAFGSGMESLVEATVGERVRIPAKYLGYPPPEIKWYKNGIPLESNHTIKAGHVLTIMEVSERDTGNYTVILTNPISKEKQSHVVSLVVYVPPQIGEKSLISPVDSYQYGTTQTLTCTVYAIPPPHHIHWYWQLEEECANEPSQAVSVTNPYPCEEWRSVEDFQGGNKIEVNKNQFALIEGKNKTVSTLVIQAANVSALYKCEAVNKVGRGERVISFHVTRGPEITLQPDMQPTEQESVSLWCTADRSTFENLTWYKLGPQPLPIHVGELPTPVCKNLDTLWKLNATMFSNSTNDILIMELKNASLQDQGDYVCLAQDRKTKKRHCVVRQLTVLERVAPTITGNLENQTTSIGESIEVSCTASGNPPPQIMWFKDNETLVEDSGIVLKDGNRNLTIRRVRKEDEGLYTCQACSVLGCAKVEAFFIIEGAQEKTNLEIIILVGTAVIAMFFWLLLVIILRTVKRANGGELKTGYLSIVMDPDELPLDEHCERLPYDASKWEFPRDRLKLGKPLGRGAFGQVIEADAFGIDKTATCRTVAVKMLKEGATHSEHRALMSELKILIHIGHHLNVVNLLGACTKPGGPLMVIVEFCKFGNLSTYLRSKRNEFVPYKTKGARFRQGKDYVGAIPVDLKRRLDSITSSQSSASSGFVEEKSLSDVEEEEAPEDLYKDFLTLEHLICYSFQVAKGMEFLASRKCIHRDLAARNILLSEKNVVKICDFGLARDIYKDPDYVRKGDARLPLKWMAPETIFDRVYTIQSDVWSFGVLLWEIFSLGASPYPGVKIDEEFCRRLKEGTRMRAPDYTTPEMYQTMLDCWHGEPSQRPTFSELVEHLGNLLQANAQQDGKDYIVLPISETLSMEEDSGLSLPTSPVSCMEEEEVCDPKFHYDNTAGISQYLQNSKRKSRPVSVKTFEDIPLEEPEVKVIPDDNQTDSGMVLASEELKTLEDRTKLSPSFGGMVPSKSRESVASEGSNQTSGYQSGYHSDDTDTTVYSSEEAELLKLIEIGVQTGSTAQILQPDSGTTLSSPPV
T3 sequence (P10721 26-976): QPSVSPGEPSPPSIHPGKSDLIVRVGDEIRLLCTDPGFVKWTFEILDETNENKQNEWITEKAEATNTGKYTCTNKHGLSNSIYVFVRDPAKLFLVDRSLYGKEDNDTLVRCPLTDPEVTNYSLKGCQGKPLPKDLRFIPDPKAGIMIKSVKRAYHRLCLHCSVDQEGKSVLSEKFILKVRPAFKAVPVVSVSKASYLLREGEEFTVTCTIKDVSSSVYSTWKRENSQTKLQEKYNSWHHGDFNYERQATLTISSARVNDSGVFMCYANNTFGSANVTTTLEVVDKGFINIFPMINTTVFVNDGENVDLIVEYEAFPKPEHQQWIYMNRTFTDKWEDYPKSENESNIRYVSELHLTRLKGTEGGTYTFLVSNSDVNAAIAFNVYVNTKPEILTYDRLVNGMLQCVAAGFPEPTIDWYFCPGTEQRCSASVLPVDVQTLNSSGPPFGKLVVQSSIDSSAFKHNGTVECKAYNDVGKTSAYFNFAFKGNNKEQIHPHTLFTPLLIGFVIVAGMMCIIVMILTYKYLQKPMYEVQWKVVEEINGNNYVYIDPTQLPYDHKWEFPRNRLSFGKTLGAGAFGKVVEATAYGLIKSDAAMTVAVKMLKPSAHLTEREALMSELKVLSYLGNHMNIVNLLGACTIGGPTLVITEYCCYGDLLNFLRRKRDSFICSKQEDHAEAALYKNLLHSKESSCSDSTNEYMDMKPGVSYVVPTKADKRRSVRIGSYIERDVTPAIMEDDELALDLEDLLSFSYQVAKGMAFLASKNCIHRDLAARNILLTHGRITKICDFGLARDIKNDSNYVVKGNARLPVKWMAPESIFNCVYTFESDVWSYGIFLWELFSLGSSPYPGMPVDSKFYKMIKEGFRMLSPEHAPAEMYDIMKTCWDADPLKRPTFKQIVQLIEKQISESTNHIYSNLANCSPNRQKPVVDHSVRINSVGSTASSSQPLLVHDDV

| Structure (SMILES) | IC50 (Aurora-C) [nM] | IC50 (KDR) [nM] | IC50 (c-kit) [nM] |
| --- | --- | --- | --- |
| CCOC(=O)N=S(C)(=O)c1ccc2cc1NCCCCNc1nc(ncc1Br)N2 (single isomer, unassigned) [Example 3] | 69 | 289 | 64 |
| CCOC(=O)N=S(C)(=O)c1ccc2cc1NCCCCNc1nc(ncc1Br)N2 (racemic) [Example 1, (RS)—S-[1^5-Bromo-2,4,9-triaza-1(2,4)-pyrimidina-3(1,3)-benzenacyclononaphan-3^4-yl]-N-(ethoxycarbonyl)-S-methylsulphoximide] | 19 | 61 | 29 |
| CCOC(=O)N=S(C)(=O)c1ccc2cc1NCCCCNc1nc(ncc1Br)N2 (single isomer, unassigned) [Example 2] | 13 | 198 | 46 |
| CCOC(=O)N=S(C)(=O)c1ccc2cc1NCCCCNc1nc(ncc1I)N2 (racemic) [Example 4, (RS)—N-(Ethoxycarbonyl)-S-[1^5-iodo-2,4,9-triaza-1(2,4)-pyrimidina-3(1,3)-benzenacyclononaphan-3^4-yl]-S-methylsulphoximide] | 24 | 9 | 23 |

Now from value to molecule:

| IC50 (Aurora-C) [nM] | IC50 (KDR) [nM] | IC50 (c-kit) [nM] | Structure (SMILES) |
| --- | --- | --- | --- |
| 95 | 60 | > 12500 | C[Si](C)(C)CCS(=O)(=O)N=S(C)(=O)c1ccc2cc1OCCCCNc1nc(ncc1Br)N2 (racemic) [Example 9, (RS)—S-[1^5-Bromo-4-oxa-2,9-diaza-1(2,4)-pyrimidina-3(1,3)-benzenacyclononaphan-3^4-yl]-S-methyl-N-[2-(trimethylsilyl)ethylsulphonyl]sulphoximide] |
| 34 | 7 | 17 | CCCS(=O)(=O)N=S(C)(=O)c1ccc2cc1NCCCCNc1nc(ncc1Br)N2 (racemic) [Example 7, (RS)—S-[1^5-Bromo-2,4,9-triaza-1(2,4)-pyrimidina-3(1,3)-benzenacyclononaphan-3^4-yl]-S-methyl-N-(propylsulphonyl)sulphoximide] |
| 19 | 22 | 14 | CCNC(=O)N=S(C)(=O)c1ccc2cc1NCCCCNc1nc(ncc1Br)N2 (racemic) [Example 6, (RS)—S-[1^5-Bromo-2,4,9-triaza-1(2,4)-pyrimidina-3(1,3)-benzenacyclononaphan-3^4-yl]-N-(ethylcarbamoyl)-S-methylsulphoximide] |
| 88 | 22 | 164 | C[Si](C)(C)CCS(=O)(=O)N=S(C)(=O)c1ccc2cc1NCCCCNc1nc(ncc1Br)N2 (racemic) [Example 5, (RS)—S-[1^5-Bromo-2,4,9-triaza-1(2,4)-pyrimidina-3(1,3)-benzenacyclononaphan-3^4-yl]-S-methyl-N-[2-(trimethylsilyl)ethylsulphonyl]sulphoximide] |
| 283 | 136 | 357 | CCCOC(=O)N=S(C)(=O)c1ccc2cc1OCCCCNc1nc(ncc1Br)N2 (racemic) [Example 8, (RS)—S-[1^5-Bromo-4-oxa-2,9-diaza-1(2,4)-pyrimidina-3(1,3)-benzenacyclononaphan-3^4-yl]-S-methyl-N-(propoxycarbonyl)sulphoximide] |
